In ChEMBL document CHEMBL1122559, “Inhibition of human dihydrofolate reductase by 4,6-diamino-1,2-dihydro-2,2-dimethyl-1-(substituted-phenyl)-s-triazine s. A quantitative structure-activity relationship analysis” (J Med Chem, 1984):

Molecular target: T1, Dihydrofolate reductase (Homo sapiens) (UniProt P00374)
T1 sequence (whole entry): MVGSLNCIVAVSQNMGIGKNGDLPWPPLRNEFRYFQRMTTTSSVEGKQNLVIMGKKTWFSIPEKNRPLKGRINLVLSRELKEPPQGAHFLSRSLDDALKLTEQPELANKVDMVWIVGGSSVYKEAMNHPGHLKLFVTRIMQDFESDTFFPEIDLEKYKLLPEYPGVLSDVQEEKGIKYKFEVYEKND
Description: Inhibitory activity against human lymphoblastoid cell (WIL2) dihydrofolate reductase (DHFR)

SMILES	Log 1/Ki app
CC1(C)N=C(N)N=C(N)N1c1ccc(OCc2ccc(CO)cc2)cc1	7.12
CC1(C)N=C(N)N=C(N)N1c1ccc(OCc2ccc(C(N)=O)cc2)cc1	7.23
CC1(C)N=C(N)N=C(N)N1c1ccc(CSc2ccccc2)cc1	7.33
CC1(C)N=C(N)N=C(N)N1c1ccc(O)cc1	4.57
CC1(C)N=C(N)N=C(N)N1c1ccc(N)cc1	4.65
Cc1ccc(N2C(N)=NC(N)=NC2(C)C)cc1	5.97
CC1(C)N=C(N)N=C(N)N1c1ccc(F)cc1	6.15
Cc1ccccc1SCc1ccc(N2C(N)=NC(N)=NC2(C)C)cc1	7.18
CC1(C)N=C(N)N=C(N)N1c1ccc(SCc2ccccc2)cc1	7.01
Cc1cccc(SCc2ccc(N3C(N)=NC(N)=NC3(C)C)cc2)c1	7.22
CC(=O)Nc1ccc(N2C(N)=NC(N)=NC2(C)C)cc1	4.23
COc1ccc(N2C(N)=NC(N)=NC2(C)C)cc1	5.31
CCCOc1ccc(N2C(N)=NC(N)=NC2(C)C)cc1	5.57
CCOC(=O)c1ccc(N2C(N)=NC(N)=NC2(C)C)cc1	3.46
CCCCCCCCCc1ccc(N2C(N)=NC(N)=NC2(C)C)cc1	6.52
CC1(C)N=C(N)N=C(N)N1c1ccc(OCc2ccccc2)cc1	6.93
CC(C)(C)c1ccc(N2C(N)=NC(N)=NC2(C)C)cc1	5.66
CC1(C)N=C(N)N=C(N)N1c1ccc(C#N)cc1	3.69

SMILES	Log 1/Ki app
CC(=O)c1ccc(N2C(N)=NC(N)=NC2(C)C)cc1	4.5
CC1(C)N=C(N)N=C(N)N1c1ccc(OCc2ccc(S(N)(=O)=O)cc2)cc1	7.21
CC1(C)N=C(N)N=C(N)N1c1ccc(I)cc1	5.51
CC1(C)N=C(N)N=C(N)N1c1ccc(C(F)(F)F)cc1	5.58
CCCCCCOc1ccc(N2C(N)=NC(N)=NC2(C)C)cc1	5.53
CCCCCCCCCCCCOc1ccc(N2C(N)=NC(N)=NC2(C)C)cc1	5.85
COC(=O)c1ccc(N2C(N)=NC(N)=NC2(C)C)cc1	3.85
CC1(C)N=C(N)N=C(N)N1c1ccc(C#Cc2ccccc2)cc1	5.42
CC1(C)N=C(N)N=C(N)N1c1ccc(S(N)(=O)=O)cc1	3.81
CC1(C)N=C(N)N=C(N)N1c1ccc(Br)cc1	5.76
CC1(C)N=C(N)N=C(N)N1c1ccc(OCc2ccc(Cl)c(Cl)c2)cc1	6.46
CC1(C)N=C(N)N=C(N)N1c1ccc(OCCOc2ccc(N)cc2)cc1	6
CC1(C)N=C(N)N=C(N)N1c1ccc(OCC(=O)N2CCOCC2)cc1	5.66
CC1(C)N=C(N)N=C(N)N1c1ccc(S(C)(=O)=O)cc1	4.08
CCCCc1ccc(N2C(N)=NC(N)=NC2(C)C)cc1	6.27
CCCCCCCCCCCOc1ccc(N2C(N)=NC(N)=NC2(C)C)cc1	5.68
CC1(C)N=C(N)N=C(N)N1c1ccc(SCc2ccc(Cl)cc2)cc1	6.97
